Data: ChEMBL document CHEMBL1155836, “Discovery of imidazole carboxamides as potent and selective CCK1R agonists” (Bioorg Med Chem Lett, 2008)
Calls of active or inactive are those of the source. The rule behind the calls is not given here.

Key:
Mus musculus [1] = assay: Gallbladder emptying activity in mouse assessed as reduction of gallbladder weight at 0.001 mg/kg, po; assay type: functional; set-up: scale not given: the % may be the effect or the level left
[2] = target: Cholecystokinin receptor type A (Mus musculus, UniProt O08786); assay: Agonist activity against mouse CCK1 receptor; assay type: functional
Cholecystokinin receptor type A (Mus musculus, UniProt O08786), sequence (O08786 whole entry, looked up): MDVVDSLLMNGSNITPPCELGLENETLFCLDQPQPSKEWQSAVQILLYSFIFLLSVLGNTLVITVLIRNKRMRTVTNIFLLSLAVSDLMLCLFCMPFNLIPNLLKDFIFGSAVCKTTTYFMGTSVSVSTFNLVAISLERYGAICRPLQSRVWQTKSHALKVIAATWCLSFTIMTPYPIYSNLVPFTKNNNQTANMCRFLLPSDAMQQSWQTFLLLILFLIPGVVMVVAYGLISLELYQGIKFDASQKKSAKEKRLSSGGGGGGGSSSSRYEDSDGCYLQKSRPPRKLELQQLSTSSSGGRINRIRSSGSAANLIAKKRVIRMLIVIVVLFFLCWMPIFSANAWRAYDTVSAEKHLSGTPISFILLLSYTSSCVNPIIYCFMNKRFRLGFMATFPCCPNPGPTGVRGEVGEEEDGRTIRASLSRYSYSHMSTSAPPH

Mus musculus [3] = assay: Reduction in overnight food intake in lean mouse at 0.3 mg/kg, po; assay type: functional; set-up: scale not given: the % may be the effect or the level left
Mus musculus [4] = assay: Reduction in overnight food intake in lean mouse at 3 mg/kg, po; assay type: functional; set-up: scale not given: the % may be the effect or the level left
[5] = Clearance in mouse at 1.0 mg/kg, iv and 10 mg/kg, po; assay type: ADME, organism-based; settings: in vivo
[6] = Volume of distribution in mouse at 1.0 mg/kg, iv and 10 mg/kg, po; assay type: ADME, organism-based; settings: in vivo
[7] = Half life in mouse at 1.0 mg/kg, iv and 10 mg/kg, po; assay type: ADME, organism-based; settings: in vivo
[8] = Cmax in mouse at 1.0 mg/kg, iv and 10 mg/kg, po; assay type: ADME, organism-based; settings: in vivo
[9] = Oral bioavailability in mouse at 10 mg/kg; assay type: ADME, organism-based; settings: in vivo
[10] = target: T1, Cholecystokinin receptor type A (Homo sapiens, UniProt P32238); assay: Agonist activity against human CCK1 receptor; assay type: functional
T1 sequence (P32238 whole entry): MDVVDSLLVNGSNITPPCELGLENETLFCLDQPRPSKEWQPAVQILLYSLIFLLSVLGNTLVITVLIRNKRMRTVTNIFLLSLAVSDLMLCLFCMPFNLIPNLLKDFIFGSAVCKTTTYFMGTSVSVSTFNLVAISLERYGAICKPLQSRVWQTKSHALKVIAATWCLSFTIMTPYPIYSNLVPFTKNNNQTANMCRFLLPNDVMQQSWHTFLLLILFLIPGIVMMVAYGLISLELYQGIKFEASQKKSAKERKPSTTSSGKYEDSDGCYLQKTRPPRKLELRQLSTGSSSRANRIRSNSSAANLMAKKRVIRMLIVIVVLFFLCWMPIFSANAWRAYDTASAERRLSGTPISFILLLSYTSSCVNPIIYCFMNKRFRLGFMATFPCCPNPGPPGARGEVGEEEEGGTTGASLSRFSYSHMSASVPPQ

[11] = target: T1, Cholecystokinin receptor type A; assay: Inhibition of human CCK1 receptor
[12] = target: T2, Gastrin/cholecystokinin type B receptor (Homo sapiens, UniProt P32239); assay: Inhibition of human CCK2 receptor
T2 sequence (P32239 whole entry): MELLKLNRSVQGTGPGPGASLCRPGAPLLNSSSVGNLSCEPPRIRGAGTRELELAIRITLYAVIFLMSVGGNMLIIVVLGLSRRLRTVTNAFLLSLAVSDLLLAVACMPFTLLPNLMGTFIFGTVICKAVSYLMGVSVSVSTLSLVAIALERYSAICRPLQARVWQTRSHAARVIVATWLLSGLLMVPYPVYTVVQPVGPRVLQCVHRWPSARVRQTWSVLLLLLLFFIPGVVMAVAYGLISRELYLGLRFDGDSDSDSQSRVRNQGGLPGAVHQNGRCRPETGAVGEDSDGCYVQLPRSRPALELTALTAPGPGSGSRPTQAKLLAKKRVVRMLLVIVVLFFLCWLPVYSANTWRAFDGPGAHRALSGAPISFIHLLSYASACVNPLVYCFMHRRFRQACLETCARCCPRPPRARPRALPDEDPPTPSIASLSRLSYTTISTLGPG

[13] = target: T3, Gastrin/cholecystokinin type B receptor (Homo sapiens) (UniProt P32239); assay: Agonist activity against human CCK2 receptor; assay type: functional
T3 sequence (whole entry): T2 sequence (P32239 whole entry)

[14] = target: T3, Gastrin/cholecystokinin type B receptor (Homo sapiens); assay: Agonist activity against human CCK2 receptor assessed as receptor activation at 10000 nM; assay type: functional
[15] = target: T4, Cholecystokinin receptor type A (Homo sapiens) (UniProt P32238); assay: Agonist activity against human CCK1 receptor assessed as receptor activation at 10000 nM; assay type: functional
T4 sequence (whole entry): T1 sequence (P32238 whole entry)

[16] = target: T3, Gastrin/cholecystokinin type B receptor (Homo sapiens); assay: Inhibition of human CCK2 receptor at 10000 nM

| EC50 [2] | clearance [5] | Vd [6] | half-life [7] | Cmax [8] | bioavailability [9] | EC50 [10] | IC50 [11] | IC50 [12] | Activity [13] | Activity [14] | Activity [15] | inhibition [16] | Structure (SMILES) | Activity (Mus musculus [1]) | Activity (Mus musculus [3]) | Activity (Mus musculus [4]) |
| --- | --- | --- | --- | --- | --- | --- | --- | --- | --- | --- | --- | --- | --- | --- | --- | --- |
| 0.14 nM |  |  |  |  |  |  |  |  |  |  |  |  | O=C(O)C(F)(F)F.O=C(O)c1cc(N2CCN(C(=O)c3cn(-c4ccc5c(c4)OCCO5)c(-c4ccc(F)cc4)n3)CC2)cc2ccccc12 | 88% | 16% | 96% |
| 1.3 nM |  |  |  |  |  |  |  |  |  |  |  |  | CCOc1cccc(-n2cc(C(=O)N3CCN(c4cc(C(=O)O)c5ccccc5c4)CC3)nc2-c2ccc(C)cc2)c1.O=C(O)C(F)(F)F | 72% | 18% | 82% |
| 2.1 nM |  |  |  |  |  |  |  |  |  |  |  |  | CCOc1cccc(-n2cc(C(=O)N3CCN(c4cnc5ccccc5c4)CC3)nc2-c2ccc(C)cc2)c1 |  |  |  |
|  | 5.3 mL/min/kg | 0.47 L/kg | 3.5 h | 280 nM | 7% | 0.094 nM | 0.12 nM | > 10000 nM |  |  |  |  | CCOc1cccc(-n2cc(C(=O)N3CCN(c4cc(C(=O)O)c5ccccc5c4)CC3)nc2-c2ccc(C)cc2)c1 |  |  |  |
|  | 10.4 mL/min/kg | 0.59 L/kg | 1.7 h | 820 nM | 22% | 0.056 nM | 0.06 nM | > 10000 nM |  |  |  |  | CCOc1cccc(-n2cc(C(=O)N3CCN(c4cc(C(=O)O)c5ccccc5c4)CC3)nc2-c2ccc(C)cc2F)c1 |  |  |  |
| 1.5 nM |  |  |  |  |  |  |  |  |  |  |  |  | CCOc1cccc(-n2cc(C(=O)N3CCN(c4cc(C(=O)O)c5ccccc5c4)CC3)nc2-c2ccc(F)cc2)c1.O=C(O)C(F)(F)F | 69% |  | 73% |
|  |  |  |  |  |  | 0.25 nM | 0.6 nM | > 10000 nM | inactive | < 36% | 92% | < 24% | CCOc1cccc(-n2cc(C(=O)N3CCN(c4cnc5ccccc5c4)CC3)nc2-c2ccc(F)cc2)c1 |  |  |  |
|  |  |  |  |  |  | 0.053 nM | 0.07 nM | > 10000 nM | inactive | < 36% | 76% | < 24% | CCOc1cccc(-n2cc(C(=O)N3CCN(c4cc(C(=O)O)c5ccccc5c4)CC3)nc2-c2ccc(F)cc2F)c1 |  |  |  |
|  | 6.4 mL/min/kg | 0.73 L/kg | 2.7 h | 1100 nM | 33% | 0.048 nM | 0.08 nM | > 10000 nM |  |  |  |  | CCOc1cccc(-n2cc(C(=O)N3CCN(c4cc(C(=O)O)c5ccccc5c4)CC3)nc2-c2ccc(F)cc2)c1 |  |  |  |
|  |  |  |  |  |  | 0.26 nM | 0.12 nM | > 10000 nM | inactive | < 36% | 101% | < 24% | O=C(c1cn(-c2ccc3c(c2)OCCO3)c(-c2ccc(F)cc2)n1)N1CCN(c2cnc3ccccc3c2)CC1 |  |  |  |
| 0.3 nM |  |  |  |  |  |  |  |  |  |  |  |  | CCOc1cccc(-n2cc(C(=O)N3CCN(c4cc(C(=O)O)c5ccccc5c4)CC3)nc2-c2ccc(C)cc2F)c1.O=C(O)C(F)(F)F | 77% | 13% | 86% |
|  |  |  |  |  |  | 0.12 nM | 0.2 nM | > 10000 nM | inactive | < 36% | 94% | < 24% | Cc1ccc(-c2nc(C(=O)N3CCN(c4cnc5ccccc5c4)CC3)cn2-c2ccc3c(c2)OCCO3)cc1 |  |  |  |
|  |  |  |  |  |  | 0.077 nM | 0.03 nM | > 10000 nM | inactive | < 36% | 71% | < 24% | Cc1ccc(-c2nc(C(=O)N3CCN(c4cc(C(=O)O)c5ccccc5c4)CC3)cn2-c2ccc3c(c2)OCCO3)c(F)c1 |  |  |  |
|  |  |  |  |  |  | 0.14 nM | 0.14 nM | > 10000 nM | inactive | < 36% | 107% | < 24% | Cc1ccc(-c2nc(C(=O)N3CCN(c4cc(C(=O)O)c5ccccc5c4)CC3)cn2-c2ccc3c(c2)OCCO3)cc1 |  |  |  |
